Reference: PMC8584229, “Comparative Antiseizure Analysis of Diverse Natural Coumarin Derivatives in Zebrafish” (International Journal of Molecular Sciences, 2021)
Read-outs that look alike come from different tables or passages of the source.

Key:
[1] = system: PTZ-induced seizure-like behavior (locomotor activity) of zebrafish larvae; test: Larval zebrafish PTZ seizure model, locomotor analysis (behavioral antiseizure activity); assay type: in vivo, zebrafish (Danio rerio); settings: for antiseizure activity in the locomotor assay (in words) / lowered seizure-like behavior / decrease of PTZ-induced locomotor activity / decrease of seizure-like behavior / lowered PTZ-induced locomotion: 20 mM PTZ; for antiseizure activity in the locomotor assay (in words): up to MTC; for lowered seizure-like behavior: abstract summary, highest effect, 18 h pre-incubation; for decrease of PTZ-induced locomotor activity: range over all test concentrations (MTC and 2-, 4-, 8-fold dilutions)
Protocol: The effect of different concentrations of test compounds was explored on the locomotor behavior of larvae exposed to the GABA-antagonist PTZ. All compounds were tested at four concentrations—the maximum tolerated concentration (MTC) and two-fold, four-fold, and eight-fold dilutions of the MTC. […] In all experiments, as expected, the positive control VPA (1 mM) decreased seizure-like behavior (i.e., PTZ-induced elevated locomotor activity) with an average (±SD) of 44 ± 34%. […] The antiseizure effect depended on either the type of coumarin or the concentration.
Adult zebrafish (Danio rerio) stocks of the AB strain were maintained at 28.5 °C, on a 14/10 h light/dark cycle under standard aquaculture conditions, and fertilized eggs were collected via natural spawning. Embryos were reared under standard light/dark conditions in embryo medium (1.5 mM HEPES, pH 7.1–7.3, 17.4 mM NaCl, 0.21 mM KCl, 0.12 mM MgSO4, 0.18 mM Ca(NO3)2, and 0.6 μM methylene blue) in an incubator at 28.5 °C. For all measurements, 7-days post-fertilization (dpf) larvae were used, which were treated at 6 dpf. The zebrafish experiments described here were approved by the Local Ethics Committee in Lublin (license no: 109/2018), the Ethics Committee of the University of Leuven (approval number 023/2017), and the Belgian Federal Department of Public Health, Food Safety & Environment (approval number LA1210199). All experiments complied with the EU Directive 2010/63/EU for animal experiments.
All compounds were dissolved in dimethyl sulfoxide (DMSO) and diluted in embryo medium to achieve a final DMSO concentration of 1% v/v. Embryo medium prepared with DMSO to a final concentration of 1% v/v served as a vehicle (VHC) control. PTZ (40 mM) was dissolved in embryo medium. The control anticonvulsant used in this study was VPA.
Six-dpf larvae were treated with VHC (embryo medium (1% DMSO)), VPA (1 mM), or tested compound, in 100 µL volume for 18 h, in individual wells of a 96-well plate at 28.5 °C in the dark. Larvae were allowed to habituate for 5 min in a dark chamber of an automated tracking device (ZebraBox system, Viewpoint, Lyon, France). Then, 100 µL of embryo medium or 100 µL of a 40 mM PTZ solution was added to obtain a final concentration of 20 mM [33] and the locomotor activity was measured to evaluate seizure intensity. The total locomotor activity was quantified using ZebraLab software (Viewpoint, Lyon, France). Total locomotor activity was expressed as total distance moved. All tracking experiments were performed at least in triplicate.
(§1) All statistical analyses were performed using GraphPad Prism 5 or 7 software (GraphPad Software, Inc., San Diego, CA, USA). The locomotor activity of zebrafish larvae and electrophysiological antiseizure analysis was evaluated using one-way ANOVA followed by Dunnett’s multiple comparisons test. Values were presented as lardist sum ± standard error of the mean (SEM) or normalized PSD (%) ± standard error of the mean (SEM). Lardist is large movement distance (>6 mm/s), measured in millimeters. Significance levels: * p ≤ 0.05, ** p ≤ 0.01, and *** p ≤ 0.001.

[2] = system: maximal electroshock-induced seizures; settings: cited from earlier work; for ED50 of classic anticonvulsant alone: without umbelliferone
[3] = system: seizure-related locomotor activity of zebrafish; design: method as in PMID 30668376; settings: cited from earlier work
[4] = system: PTZ-induced epileptiform activity in the zebrafish larval optic tectum; test: Local field potential recordings from the optic tectum, power spectral density analysis; assay type: in vivo, zebrafish (Danio rerio); settings: MTC, 18 h incubation; 20 mM PTZ; 20–90 Hz band
Protocol: To further investigate the results of the behavioral study for all eight selected compounds, local field potential (LFP) measurements were employed. Zebrafish larvae were incubated with the compounds at their MTC for 18 h in darkness and the epileptiform activity was measured in the zebrafish larval optic tectum. A significant reduction in larvae with PTZ-induced epileptiform activity was observed, in comparison to PTZ-treated controls, for all compounds except nodakenetin (Figure 3).
For the rapid, objective, and automated analysis of the LFP recordings, power spectral density (PSD) analysis was performed. This methodology was previously developed and used for zebrafish electrophysiology. It relies on the Welch’s method of averaging the modified periodograms with a 512-point fast Fourier transformation with 80% overlapping 100 sample (100 ms) long segments and a Hamming window. PSDs were estimated for each LFP recording over each 10 Hz frequency band, ranging from 0 to 160 Hz. All examined furanocoumarins at the MTC concentration ameliorated the excitatory effect of preincubation with PTZ. Oxypeucedanin (1), oxypeucedanin hydrate (2), and notopterol (3) decreased normalized PSD per larva to a similar level with 83–89%. […] Pimpinellin (14, an angular furanocoumarin), daphnoretin (17, a simple coumarin derivative), and hyuganin C (18, a dihydropyranocoumarin) decreased normalized PSD by 81, 88, and 65%, respectively.
Non-invasive local field potential recordings were performed from the optic tectum of 7-dpf zebrafish larvae. Larvae were treated with VHC (embryo medium (1% DMSO)) or compound (MTC) in 100 µL volume (in individual wells of a 96-well plate) in darkness (28 °C) for 18 h before measurement. Prior to the recording, 100 µL of VHC (embryo medium) or 40 mM PTZ (to obtain a final concentration of 20 mM) was added to the well for 15 min. After incubation, the larva was immobilized in 2% low-melting-point agarose (Invitrogen, Carlsbad, CA, USA) and the signal electrode, an electrode inside a blunt soda-glass pipet (1412227, Hilgenberg, Germany), was positioned on the skin covering the optic tectum. Electrophysiological recordings where performed as described before. Automated power spectral density analysis was performed using MATLABR2018b (The MathWorks, Inc., Natick, MA, USA), as described before.
as §1

GABAA receptor = system: GABAA receptor; design: method as in PMID 21749864; settings: cited from earlier work; for EC50: read-out: EC50 (potentiation of IGABA)

CC(C)=CCCC(C)=CCOc1c2occc2cc2ccc(=O)oc12 [8-geranyloxypsoralen]
antiseizure activity in the locomotor assay (in words) [1]: lack of antiseizure activity

CCC1(c2ccccc2)C(=O)NC(=O)NC1=O [PB, phenobarbital, reference compound]
ED50 of classic anticonvulsant alone ([2]; mice): 35.39 mg/kg

C1CCc2nnnn2CC1 [PTZ, pentylenetetrazole, reference compound]
increase in seizure-like behavior and locomotor activity (lardist sum), average ± SD ([1]; proconvulsant, 20 mM, all experiments): 59 ± 35%

CCCC(CCC)C(=O)O [VPA, valproic acid, reference compound]
ED50 of classic anticonvulsant alone ([2]; mice): 281.4 mg/kg
decrease of seizure-like behavior (PTZ-induced elevated locomotor activity), average ± SD ([1]; positive control, 1 mM, all experiments): 44 ± 34%

CC(C)=CCC/C(C)=C/COc1c2ccoc2cc2oc(=O)ccc12 [bergamottin]
inhibition (antiseizure, locomotor activity) ([3]; most active concentration, 2 µM): 26%

COc1c2ccoc2cc2oc(=O)ccc12 [bergapten]
protective properties in MES test (in words) ([2]; mice): did not show protective properties

COc1c2ccoc2c(OC[C@@H](O)C(C)(C)O)c2oc(=O)ccc12 [byakangelicin]
antiseizure activity in the locomotor assay (in words) [1]: lack of antiseizure activity

COc1c2ccoc2c(OC[C@H]2OC2(C)C)c2oc(=O)ccc12 [byakangelicol]
antiseizure activity in the locomotor assay (in words) [1]: lack of antiseizure activity

COc1cc2cc(Oc3ccc4ccc(=O)oc4c3)c(=O)oc2cc1O [daphnoretin]
decrease of normalized PSD (PTZ-induced elevation in power spectral density) [4]: 88%
lowered seizure-like behavior [1]: 65%
decrease of PTZ-induced locomotor activity [1]: 42–65%

CC1(C)O[C@@H]1COc1c2occc2cc2ccc(=O)oc12 [heraclenin, reference compound]
enhancement of IGABA (GABAA receptor): greater than 20%

CC[C@H](C)C(=O)OC1c2c(ccc3ccc(=O)oc23)OC(C)(C)C1OC(C)=O (stereo partly shown) [hyuganin C]
decrease of normalized PSD (PTZ-induced elevation in power spectral density) [4]: 65%
decrease of seizure-like behavior ([1]; 10 µM): 27%
decrease of seizure-like behavior ([1]; 20 µM): 35%
lowered seizure-like behavior [1]: 35%

CC(C)=CCOc1c2occc2cc2ccc(=O)oc12 [imperatorin]
enhancement of IGABA (GABAA receptor): greater than 20%
raised threshold for electroconvulsions ([2]; 50 mg/kg i.p., mice): 38%
raised threshold for electroconvulsions ([2]; 100 mg/kg i.p., mice): 68%
antiseizure activity in the locomotor assay (in words) [1]: lack of antiseizure activity

CC(C)=CCOc1c2ccoc2cc2oc(=O)ccc12 [isoimperatorin]
enhancement of IGABA (GABAA receptor): greater than 20%

CC(C)(O)[C@H]1Cc2cc3ccc(=O)oc3cc2O1 [nodakenetin]
decrease of normalized PSD (PTZ-induced elevation in power spectral density) [4]: 26%
lowered seizure-like behavior [1]: 29%

CC(C)(O[C@@H]1O[C@H](CO)[C@@H](O)[C@H](O)[C@H]1O)[C@H]1Cc2cc3ccc(=O)oc3cc2O1 [nodakenin]
decrease of normalized PSD (PTZ-induced elevation in power spectral density) [4]: 77%
antiseizure activity in the locomotor assay (in words) [1]: inactive

CC(C)=CC(O)C/C(C)=C/COc1c2ccoc2cc2oc(=O)ccc12 (stereo not shown) [notopterol]
decrease of normalized PSD (PTZ-induced elevation in power spectral density) [4]: 83–89%
lowered PTZ-induced locomotion ([1]; 2 µM): 54%
lowered PTZ-induced locomotion ([1]; 0.25–1 µM): 35–39%
lowered seizure-like behavior [1]: 54%

COc1ccc2ccc(=O)oc2c1CC=C(C)C [osthole]
current in the absence of GABA (in words) (GABAA receptor): neither of them induced a current in the absence of GABA
enhancement of IGABA (GABAA receptor): greater than 20%
EC50 (GABAA receptor): 14 ± 1 µM
protection of the animals against MES ([2]; 266 and 259 mg/kg i.p., between 15 and 30 min before the test): ~90%
effect on the anticonvulsant activity of CBZ, PB, PHT and VPA on co-administration (in words) ([2]; mice): did not have a significant effect
antiseizure activity in the locomotor assay (in words) [1]: not active

CC(C)(O)[C@H](O)COc1c2ccoc2cc2oc(=O)ccc12 [oxypeucedanin hydrate]
decrease of normalized PSD (PTZ-induced elevation in power spectral density) [4]: 83–89%
lowered seizure-like behavior [1]: 74%
decrease of PTZ-induced locomotor activity [1]: 43–74%

CC1(C)O[C@H]1COc1c2ccoc2cc2oc(=O)ccc12 [oxypeucedanin]
current in the absence of GABA (in words) (GABAA receptor): neither of them induced a current in the absence of GABA
enhancement of IGABA (GABAA receptor): greater than 20%
EC50 (GABAA receptor): 25 ± 8 µM
decrease of normalized PSD (PTZ-induced elevation in power spectral density) [4]: 83–89%
protective properties in MES test (in words) ([2]; mice): did not show protective properties
lowered seizure-like behavior [1]: 38%
decrease of PTZ-induced locomotor activity [1]: 23–38%

COc1c2ccoc2c(OCC=C(C)C)c2oc(=O)ccc12 [phellopterin]
enhancement of IGABA (GABAA receptor): greater than 20%
antiseizure activity in the locomotor assay (in words) [1]: lack of antiseizure activity

COc1c(OC)c2occc2c2oc(=O)ccc12 [pimpinellin]
enhancement of IGABA (GABAA receptor): greater than 20%
decrease of normalized PSD (PTZ-induced elevation in power spectral density) [4]: 81%
lowered seizure-like behavior [1]: 60%

O=c1ccc2ccc(O)cc2o1 [umbelliferone, 7-hydroxycoumarin]
increase of the electroshock threshold ([2]; 150 mg/kg i.p., 30 min before electroshock): around 37%
antiseizure activity in the locomotor assay (in words) [1]: not active

COc1c2occc2cc2ccc(=O)oc12 [xanthotoxin, reference compound]
ED50 (anticonvulsant activity) ([2]; administered 60 min before electroconvulsion, mice): 219.1 ± 4.7 mg/kg

lucidafuranocoumarin A
inhibition (antiseizure, locomotor activity) ([3]; 16 µM): 69%
